Key:
HCT-116 cell line = test: Inhibition of cell growth, MTT tetrazolium salt assay; assay type: cell-based
How it was run: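 Growth inhibition was read as MTT-formazan absorbance at 540 nm, after 4 h with 0.2 mg/mL MTT. Before that, HCT-116 cells had been exposed 3–5 days at 37 °C to compounds in 0.5% (v/v) DMSO, added 4 h after plating. 50% and 90% inhibitory concentrations were taken from semi-log concentration–inhibition plots versus vehicle controls.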

CDK2/cyclin A = molecular target: T1, CDK2/cyclin A (Homo sapiens, UniProt P24941); test: Inhibition of CDK2/cyclin A retinoblastoma kinase activity (Ki; % inhibition); assay type: biochemical
T1 construct: made in house; host or cells: CDK2: insect cells (baculovirus); cyclin A: E. coli
How it was run: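 Apparent Ki values came from fitting concentration-dependent activity data to competitive (or competitive tight-binding) models, and % inhibition from single 30 nM screens of library compounds. Activity was measured as ³²P/³³P incorporation from 25 μM ATP into an Rb substrate by 10 or 19 nM CDK2/delta cyclin A at 30 °C over 60–75 min, pH 7.4.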

human CDK4/cyclin D3 = molecular target: T2, human CDK4/cyclin D3 (Homo sapiens, UniProt P11802); test: Inhibition of CDK4/cyclin D retinoblastoma kinase activity (Ki; % inhibition); assay type: biochemical
T2 construct: made in house; host or cells: insect cells co-infected with baculovirus vectors
T2 sequence (P11802 whole entry): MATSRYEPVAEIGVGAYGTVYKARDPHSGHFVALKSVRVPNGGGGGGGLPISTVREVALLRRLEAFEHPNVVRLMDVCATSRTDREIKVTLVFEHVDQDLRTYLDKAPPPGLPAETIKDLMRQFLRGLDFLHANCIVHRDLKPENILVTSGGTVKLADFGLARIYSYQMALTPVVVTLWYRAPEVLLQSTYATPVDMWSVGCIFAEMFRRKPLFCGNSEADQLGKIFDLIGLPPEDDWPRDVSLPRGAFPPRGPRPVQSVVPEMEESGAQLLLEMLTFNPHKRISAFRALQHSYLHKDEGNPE
T2 sequence (P30281 1-264 partner limits assumed): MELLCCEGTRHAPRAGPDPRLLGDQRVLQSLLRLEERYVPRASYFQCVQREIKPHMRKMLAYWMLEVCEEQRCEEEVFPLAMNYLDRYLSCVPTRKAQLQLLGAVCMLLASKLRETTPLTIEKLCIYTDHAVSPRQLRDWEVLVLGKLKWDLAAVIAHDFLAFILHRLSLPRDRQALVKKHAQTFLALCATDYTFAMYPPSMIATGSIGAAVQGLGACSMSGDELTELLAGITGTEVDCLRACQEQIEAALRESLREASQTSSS
How it was run: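 Radiometric filter-binding read-out: Rb residues 386-928 phosphorylated by 5 nM CDK4/cyclin D3(1-264) from baculovirus-infected insect cells, 25 μM ATP, HEPES pH 7.4, 30 °C. Run 20 min, or 60 min for tight-binding inhibitors. Screening at 30 nM theoretical compound; apparent Ki by competitive-inhibition fitting.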

[1] = HCT-116 cells, 0.25 μM compound

Structure (SMILES)	HCT-116 % Inhibition at 0.1 μM (HCT-116 cell line; HCT-116 cells, 0.1 μM compound) [%]	HCT-116 % Inhibition at 0.25 μM (HCT-116 cell line; [1]) [%]	CDK2 % Inhibition at 0.03 μM (CDK2/cyclin A; 0.03 μM compound) [%]	CDK4 % Inhibition at 0.03 μM (human CDK4/cyclin D3; 0.03 μM compound) [%]	HCT-116 % Inhibition at 0.25 μM (HCT-116 cell line; HCT-116, at 0.25 μM) [%]	CDK2 % Inhibition at 0.03 μM (CDK2/cyclin A; at 0.03 μM) [%]	CDK4 % Inhibition at 0.03 μM (human CDK4/cyclin D3; at 0.03 μM) [%]	other results
CC[C@H](C)[C@@H](CO)NC(=O)c1ccc(Nc2nc(N)c(C(=O)c3c(F)cccc3F)s2)cc1 [Example G327]	8	55	−7	11	–	–	–	–
CCOc1ccccc1CNC(=O)c1ccc(Nc2nc(N)c(C(=O)c3c(F)cccc3F)s2)cc1 [Example G285]	1	60	13	18	–	–	–	–
NC(=O)c1ccc(NC(=O)c2ccc(Nc3nc(N)c(C(=O)c4c(F)cccc4F)s3)cc2)cc1 [Example G85]	–	–	–	–	56	7	6	–
CC(=O)Nc1ccc(NC(=O)c2ccc(Nc3nc(N)c(C(=O)c4c(F)cccc4F)s3)cc2)cc1 [Example G66]	–	–	–	–	60	26	14	–
CN(CCc1ccccc1)C(=O)c1ccc(Nc2nc(N)c(C(=O)c3c(F)cccc3F)s2)cc1 [Example G11]	–	–	–	–	49	−12	6	–
CC(NC(=O)c1ccc(Nc2nc(N)c(C(=O)c3c(F)cccc3F)s2)cc1)C1CCCCC1 (stereo not drawn) [Example G388]	–	–	–	–	–	–	–	HCT-116 % Inhibition at 0.1 μM (HCT-116 cell line; HCT-116 cells, 0.1 μM compound, 0.1 µM): 9%; HCT-116 % Inhibition at 0.25 μM (HCT-116 cell line; HCT-116 cells, 0.25 μM compound, 0.25 µM): 45%; CDK2 % Inhibition at 0.03 μM (CDK2/cyclin A; 0.03 μM compound, 0.03 µM): 3%; CDK4 % Inhibition at 0.03 μM (human CDK4/cyclin D3; 0.03 μM compound, 0.03 µM): 8%
C=C(C)CN(C)C(=O)c1ccc(Nc2nc(N)c(C(=O)c3c(F)cccc3F)s2)cc1 [Example G182]	–	–	–	–	52	−2	6	HCT-116 % Inhibition at 0.1 μM (HCT-116 cell line; HCT-116, at 0.1 μM): 23%
Cc1cccc(N2CCN(C(=O)c3ccc(Nc4nc(N)c(C(=O)c5c(F)cccc5F)s4)cc3)CC2C)c1 (stereo not drawn) [Example G308]	5	60	−23	5	–	–	–	–
Nc1nc(Nc2ccc(C(=O)NCc3ccc(C(F)(F)F)cc3)cc2)sc1C(=O)c1c(F)cccc1F [Example G261]	26	69	30	27	–	–	–	–
Nc1nc(Nc2ccc(C(=O)NC3CCc4ccccc43)cc2)sc1C(=O)c1c(F)cccc1F (stereo not drawn) [Example G95]	–	–	–	–	63	12	18	HCT-116 % Inhibition at 0.1 μM (HCT-116 cell line; HCT-116, at 0.1 μM): 32%
Nc1nc(Nc2ccc(C(=O)N[C@@H]3CCN(Cc4ccccc4)C3)cc2)sc1C(=O)c1c(F)cccc1F [Example C365]	34	93	8	22	–	–	–	–
Nc1nc(Nc2ccc(C(=O)Nc3ccccc3)cc2)sc1C(=O)c1c(F)cccc1F [Example G7]	–	–	–	–	80	4	5	–
COC(=O)CN(C)C(=O)c1ccc(Nc2nc(N)c(C(=O)c3c(F)cccc3F)s2)cc1 [Example G50]	–	–	–	–	61	9	10	–
CC1CC(NC(=O)c2ccc(Nc3nc(N)c(C(=O)c4c(F)cccc4F)s3)cc2)CC(C)(C)C1 (stereo not drawn) [Example G112]	–	–	–	–	57	−11	13	HCT-116 % Inhibition at 0.1 μM (HCT-116 cell line; HCT-116, at 0.1 μM): 6%

— patent US6720346B2, “Thiazole benzamide derivatives and pharmaceutical compositions for inhibiting cell proliferation” (Agouron Pharmaceuticals, Inc., priority 2001, dated 2004)
